Experiments:
hSARM1 = molecular target: T1, hSARM1 (Homo sapiens, UniProt Q6SZW1); test: Human SARM1 activity measurement in HEK293 cells transiently transfected with ΔN-hSARM1 (PC6 fluorescent probe); assay type: cell-based; design: expressed in transfected cells; host or cells: HEK293, pcDNA3 expression vector; details: inhibition rate; compound 30 µM; PC6 50 µM; HEK293 cells expressing ΔN-hSARM1; approximately 48 hours from transfection; read-out: Evaluation on hSARM1 inhibitory
T1 sequence (Q6SZW1 28-724): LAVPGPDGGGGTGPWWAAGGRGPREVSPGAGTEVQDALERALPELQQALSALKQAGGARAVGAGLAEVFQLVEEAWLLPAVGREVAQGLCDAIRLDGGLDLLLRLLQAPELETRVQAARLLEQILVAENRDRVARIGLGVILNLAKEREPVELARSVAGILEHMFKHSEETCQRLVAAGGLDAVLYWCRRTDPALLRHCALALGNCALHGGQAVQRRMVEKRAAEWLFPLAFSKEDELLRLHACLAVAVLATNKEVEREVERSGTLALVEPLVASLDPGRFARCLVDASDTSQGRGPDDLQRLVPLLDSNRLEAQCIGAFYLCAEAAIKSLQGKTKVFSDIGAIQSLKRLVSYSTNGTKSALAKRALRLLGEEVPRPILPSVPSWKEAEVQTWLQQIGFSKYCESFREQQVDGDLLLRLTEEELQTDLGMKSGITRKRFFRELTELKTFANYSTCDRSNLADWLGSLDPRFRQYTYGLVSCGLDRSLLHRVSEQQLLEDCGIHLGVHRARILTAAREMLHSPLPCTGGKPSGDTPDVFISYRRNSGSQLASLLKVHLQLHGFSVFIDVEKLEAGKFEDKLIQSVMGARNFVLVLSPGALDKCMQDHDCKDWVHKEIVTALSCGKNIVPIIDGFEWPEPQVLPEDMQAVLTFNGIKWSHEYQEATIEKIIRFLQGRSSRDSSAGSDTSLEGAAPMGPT
Experimental: HEK293 cells cultured in a prepared medium of nicotinamide-free DMEM (Dulbecco's modified Eagle medium) supplemented with 10% FBS (BioSera), a 1% penicillin-streptomycin solution (FUJIFILM Wako Pure Chemical Corp.), 5 μM nicotinamide were inoculated at approximately 50,000 cells/well to a 96-well microplate, and the cells were cultured at 37°C under 5% CO2, transiently transfected on the next day with a pcDNA3 expression vector containing a DNA sequence (SEQ ID NO: 1) deficient in a mitochondrial targeting sequence encoded by an N-terminal 78-base sequence in cDNA encoding human sterile α- and armadillo-motif-containing protein (hSARM1) using PEI MAX(R) reagent (PolySciences Inc.), and forced to express ΔN-hSARM1 (SEQ ID NO: 2). Approximately 8 hours later, PC6, which reacts as a substrate of SARM1-specific base exchange reaction and functions as a fluorescent probe, was added thereto at a final concentration of 50 μM, and intracellular hSARM1 activity was measured (Li et al, eLife 2021 10: e67381). A compound for inhibitory activity evaluation was added at a final concentration of 30 μM at the same time with PC6, while dimethyl sulfoxide (Nacalai Tesque Inc.) was added to samples of a control group at the same time with PC6. The cells were incubated at 37°C under 5% CO2 for approximately 48 hours from transfection, followed by fluorescent signal measurement using SpectraMax M2 (Molecular Devices) (excitation: 405 nm, fluorescence: 525 nm, fluorescence cutoff: 515 nm). Results of this screening are reported as an inhibition rate (%) relative to a negative control defined as follows by using fluorescence intensity measured from a control group without transfection with ΔN-hSARM1 as a background whereas using fluorescence intensity measured from a control group transfected with ΔN-hSARM1 as the negative control. Inhibitory rate (%) = 100-(([…]-Background))/((Signalofthenegativecontrol-Background)) × 100 [formula] The nicotinamide-free medium was prepared so as to have the same composition as that of DMEM having known composition which is generally used in the art except for nicotinamide. […]

[1] = tested on: primary cultured cells of mouse fetus-derived dorsal root ganglia (DRGs); test: Suppression of axonal degeneration after axotomy in DRG explant culture; assay type: cell-based; details: minimum concentration at which axonal degeneration was suppressed (DI 0.3 or less), 24 hours after axotomy; for minimal effective concentration: Mus musculus, read-out: Evaluation on protection against degeneration
Experimental: The compound of the present invention was studied for its protective effect against axonal injury using primary cultured cells of mouse fetus-derived dorsal root ganglia (DRGs).
DRGs were collected from a fetus derived from an ICR mouse (13.5 days of pregnancy). DRGs were cultured using a plate coated by incubation with 0.1 mg/mL poly-L-lysine at 4°C for 24 hours or longer, washing with PBS, and then incubation with 2.5 µg/mL Cultrex Mouse Laminin I at 37°C for 4 to 6 hours.
One of DRGs collected was plated to each well of the coated 24-well plate. The DRG was cultured in a nicotinamide-free medium for neuron (supplemented with 10% FBS, 1 mM glutamine, 50 ng/mL NGF2.5S, and penicillin-streptomycin) for 24 hours at maximum from the start of culture and then cultured in a nicotinamide-free medium for neuron (supplemented with 2% MACS NeuroBrew-21, 50 ng/mL NGF2.5S, 1% Glutamax, 20 µM uridine, 20 µM 5-fluoro-2'-deoxyuridine, and penicillin-streptomycin) for 7 to 8 days.
The nicotinamide-free medium for neuron was prepared so as to have the same constituents as those of the composition published in a previously reported paper (Brewer et al., J. Neuroscience Research 35: 567-576) except for nicotinamide with reference to this composition.
The test compound is dissolved in DMSO and added to cells such that the final concentration of DMSO is 0.1% (1000-fold dilution). 10 mM, 1 mM, 100 µM, 10 µM, 1 µM, and 100 nM samples of the test compound are prepared and added at a 1000-fold dilution to cells.
Axotomy was carried out by scooping out a cell body portion of the cultured DRG with a chip for a micropipette. The test compound was added at the following concentrations (final concentration: 10 µM, 1 µM, 100 nM, 10 nM, 1 nM, and 100 pM) within 30 minutes after axotomy. The compound was evaluated for its protective effect against axonal degeneration by imaging (Leica DMIL microscope, 20× objective lens) the state of neurites 24 hours after axotomy and evaluating the degree of degeneration. The degree of degeneration was quantified using a program uniquely developed using the R language. A degeneration index (DI) was used as an indicator for the degree of degeneration, and the ratio of the area of a fragmented axon to the total area of axons was calculated as defined in the equation of Expression 2. Suppressed axonal degeneration was evaluated when the value of DI was 0.3 or less. The minimum concentration at which axonal degeneration was suppressed was determined for each compound. Degeneratioin index (DI) = (Degenerated axons)/(All axons) [formula]
The axonal protective activity was evaluated as A ≤ 0.01 µM, 0.01 µM < B ≤ 0.1 µM, and 0.1 µM < C ≤ 1 µM depending on the minimum concentration at which axonal degeneration was suppressed.

SMILES | inhibition at 30 µM (hSARM1) | minimal effective concentration [1] | Evaluation on protection against degeneration [1]
CC(C)(C)OC(=O)N1CC(C(=O)Nc2ccc(CNC(=O)c3cccnc3)cn2)C1 [compound 94] | > 75% | ≤ 0.01 µM | –
O=C(/C=C/c1cccnc1)NCCCOCCOCCCNC(=O)/C=C/c1cccnc1 [compound 69] | > 75% | ≤ 0.01 µM | –
O=C(/C=C/c1cccnc1)NCCOCCOc1cccc(O)c1 [compound 26] | > 75% | ≤ 0.01 µM | –
O=C(/C=C/c1cccnc1)Nc1cccc(OC(=O)/C=C/c2cccnc2)c1 [compound 33] | > 75% | 0.01 to 0.1 µM | –
O=C(Cc1cccc(C(F)(F)F)c1)Nc1ccc(CNC(=O)c2cccnc2)cn1 [Compound 156] | > 75% | ≤ 0.01 µM | –
CCC(=O)Nc1ccc(CNC(=O)c2cccnc2)cn1 [Compound 157] | > 10% | – | A (A ≤ 0.01 µM)
O=C(Cc1ccc(Cl)cc1)Nc1ccc(CNC(=O)c2cccnc2)cn1 [Compound 145] | > 75% | ≤ 0.01 µM | –
O=C(/C=C/c1cccnc1)NCCCOc1cccc(O)c1 [compound 23] | > 75% | ≤ 0.01 µM | –
COCOc1cccc(OCCOCCNC(=O)/C=C/c2cccnc2)c1 [compound 29] | > 75% | ≤ 0.01 µM | –
O=C(COc1ccccc1)Nc1ccc(CNC(=O)c2cccnc2)cn1 [Compound 147] | > 75% | ≤ 0.01 µM | –
O=C(/C=C/c1cccnc1)NCCCCCCNC(=O)/C=C/c1cccnc1 [compound 38] | > 75% | ≤ 0.01 µM | –
NCCOCCOCCOCCCCCCCCNC(=O)c1cccnc1 [compound 9] | > 75% | ≤ 0.01 µM | –
O=C(NCCCOc1ccc(CNC(=O)c2cccnc2)cc1)c1cccnc1 [compound 52] | > 50% | ≤ 0.01 µM | –
COCOc1cccc(OCCCNC(=O)/C=C/c2cccnc2)c1 [compound 24] | > 75% | ≤ 0.01 µM | –
O=C(/C=C/c1cccnc1)NCc1ccc(NC(=O)/C=C/c2cccnc2)cc1 [compound 62] | > 75% | ≤ 0.01 µM | –
NCc1ccc(C(=O)N2CCC(CCCCNC(=O)/C=C/c3cccnc3)CC2)cc1 [compound 1] | > 75% | – | A (A ≤ 0.01 µM)
O=C(NCc1ccc(NC(=O)C2COC2)cc1)c1cccnc1 [compound 93] | > 50% | 0.01 to 0.1 µM | –
O=C(/C=C/c1cccnc1)NCCCCCCN1CCN(CCO)CC1 [compound 3] | > 75% | ≤ 0.01 µM | –
O=C(/C=C/c1cccnc1)NCCCNC1CCN(C(=O)c2ccccc2)CC1 [compound 12] | > 75% | 0.01 to 0.1 µM | –
O=C(Cc1cccnc1)NCc1ccc(NC(=O)c2ccccc2)nc1 [Compound 141] | – | – | C (0.1 µM < C ≤ 1 µM)
C/C(=C\C(=O)NCCOCCOc1ccc(CNC(=O)c2cccnc2)cc1)c1cccnc1 [compound 56] | > 50% | ≤ 0.01 µM | –
O=C(/C=C/c1cccnc1)NCCOCCOc1ccc(CNC(=O)c2ccccc2)cc1 [compound 14] | > 75% | ≤ 0.01 µM | –
C#CCCOc1ccc(C(=O)NCCCCCCNC(=O)c2cccnc2)cc1 [compound 68] | > 75% | ≤ 0.01 µM | –
O=C(NCCOCCOc1ccc(CNC(=O)c2cccnc2)cc1)c1cccnc1 [compound 54] | > 75% | ≤ 0.01 µM | –
O=C(Cc1ccccc1C(F)(F)F)Nc1ccc(CNC(=O)c2cccnc2)cn1 [Compound 155] | > 75% | ≤ 0.01 µM | –
O=C(/C=C/c1ccccc1)NCc1ccc(CNC(=O)c2cccnc2)cc1 [compound 66] | > 75% | ≤ 0.01 µM | –

Reference: patent EP4793271A1, “NEUROPROTECTIVE AGENT” (National Center of Neurology and Psychiatry, priority 2023, dated 2025)
